The source of these data is patent US20260166039A1 (SCHRÖDINGER, INC., priority 2022, published 2026).

In general, IC50 refers to the midpoint of a concentration-inhibition curve.

Some results are limits rather than exact numbers.

Assay [1] relates to phosphorylation of Cdc2 Y15 (Wee1 substrate) in A427 cells. In words: Phosphorylated Cdc2 MSD Electrochemiluminescence Assay. The format is cell-based. The conditions noted are these: Homo sapiens, A-427, class symbols, read-out: A427 pCDC2 MSD IC50. A digest of the protocol: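 A427 cells (RPMI 1640, 10% FBS) treated 20 h after plating with 3-fold serial compound dilutions, in duplicate, 37 °C, 5% CO2; total incubation 6 h. Lysate Cdc2 pY15 read by MSD electrochemiluminescence sandwich immunoassay; % remaining signal normalised to DMSO (high) and reference Wee1 inhibitor (low) controls.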

Another assay addresses T1, Wee1 kinase domain (Homo sapiens, UniProt P30291).
T1 construct: Wee1 kinase domain was purchased from Carna (catalog #05-177); purchased Carna 05-177
In words: Wee1 Kinase Biochemical Assay (ADP-Glo). The conditions noted are these: class symbols; 1 nM Wee1 enzyme, 15 uM ATP, 4 hours at 25° C. A digest of the protocol:
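Carna Wee1 kinase domain at 1 nM, with 15 uM ATP and 2 ng/mL poly(Lys,Tyr 4:1) substrate in 40 mM Tris-HCl, 20 mM MgCl2, 0.1 mg/mL BSA, 2 mM DTT, run 4 h at 25° C. ADP formation read by ADP-Glo luminescence. Percent inhibition normalised to DMSO and saturating-inhibitor controls.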
On the technique in general: In ADP-Glo the light output rises with the ADP produced.

T1 sequence (P30291 299-569 limits assumed): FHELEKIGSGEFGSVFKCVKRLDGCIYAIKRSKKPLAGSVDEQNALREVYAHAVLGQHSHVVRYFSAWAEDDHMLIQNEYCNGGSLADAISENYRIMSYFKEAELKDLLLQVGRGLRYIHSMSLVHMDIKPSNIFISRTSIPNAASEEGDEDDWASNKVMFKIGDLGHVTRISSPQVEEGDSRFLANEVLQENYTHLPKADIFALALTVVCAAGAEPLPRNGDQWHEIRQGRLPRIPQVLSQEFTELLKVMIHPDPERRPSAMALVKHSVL

For `CN1CC[C@H](Oc2ccc(Nc3ncc4c(n3)N(c3cccc(N5CCCC5=O)n3)[C@@H]3CC(C)(C)OC[C@]43C)cc2)C1` [Example 618, 1-(6-((4bR,8aR)-4b,7,7-trimethyl-2-((4-(((S)-1-methylpyrrolidin-3-yl)oxy)phenyl)amino)-4b,7,8,8a-tetrahydropyrano[3′,4′:4,5]pyrrolo[2,3-d]pyrimidin-9(5H)-yl)pyridin-2-yl)pyrrolidin-2-one], the results for the IC50 (in assay [1]; against Wee1 kinase domain) were less than 100 nM and less than 10 nM, respectively.

For `CC1(C)C[C@H]2N(c3cccc(N4CCCC4=O)n3)c3nc(Nc4ccc(O[C@H]5CCNC5)cc4)ncc3[C@@]2(C)CO1` [Example 620, 1-(6-((4bR,8aR)-4b,7,7-trimethyl-2-((4-(((S)-pyrrolidin-3-yl)oxy)phenyl)amino)-4b,7,8,8a-tetrahydropyrano[3′,4′:4,5]pyrrolo[2,3-d]pyrimidin-9(5H)-yl)pyridin-2-yl)pyrrolidin-2-one], the IC50 in assay [1] was less than 100 nM; against Wee1 kinase domain, less than 10 nM.

For `CC1(C)C[C@H]2N(c3cccc(N4CCOC4=O)n3)c3nc(Nc4ccc(O[C@@H]5CCNC5)cc4)ncc3[C@@]2(C)CO1` [Example 622, 3-(6-((4bR,8aR)-4b,7,7-trimethyl-2-((4-(((R)-pyrrolidin-3-yl)oxy)phenyl)amino)-4b,7,8,8a-tetrahydropyrano[3′,4′:4,5]pyrrolo[2,3-d]pyrimidin-9(5H)-yl)pyridin-2-yl)oxazolidin-2-one], the half-maximal inhibitory concentration (IC50) was 100 to 1000 nM in assay [1] and less than 10 nM against Wee1 kinase domain.

As to `CN1CC[C@@H](Oc2ccc(Nc3ncc4c(n3)N(c3cccc(N5CCOC5=O)n3)[C@@H]3CC(C)(C)OC[C@]43C)cc2)C1` [Example 624, 3-(6-((4bR,8aR)-4b,7,7-trimethyl-2-((4-(((R)-1-methylpyrrolidin-3-yl)oxy)phenyl)amino)-4b,7,8,8a-tetrahydropyrano[3′,4′:4,5]pyrrolo[2,3-d]pyrimidin-9(5H)-yl)pyridin-2-yl)oxazolidin-2-one], the half-inhibitory concentration (IC50) in assay [1] was 100 to 1000 nM; against Wee1 kinase domain, less than 10 nM.

As to `CN1CC[C@@H](Oc2ccc(Nc3ncc4c(n3)N(c3cccc(N5CCCC5=O)n3)[C@@H]3CC(C)(C)OC[C@]43C)cc2)C1` [Example 626, 1-(6-((4bR,8aR)-4b,7,7-trimethyl-2-((4-(((R)-1-methylpyrrolidin-3-yl)oxy)phenyl)amino)-4b,7,8,8a-tetrahydropyrano[3′,4′:4,5]pyrrolo[2,3-d]pyrimidin-9(5H)-yl)pyridin-2-yl)pyrrolidin-2-one], the concentration for half-maximal inhibition (IC50) was 100 to 1000 nM in assay [1] and less than 10 nM against Wee1 kinase domain.

For `CN1C[C@@H]2C[C@H]1CN2c1ccc(Nc2ncc3c(n2)N(c2cccc(N4CCCC4=O)n2)[C@@H]2CC(C)(C)OC[C@]32C)cc1` [Example 629, 1-(6-((4bR,8aR)-4b,7,7-trimethyl-2-((4-((1S,4S)-5-methyl-2,5-diazabicyclo[2.2.1]heptan-2-yl)phenyl)amino)-4b,7,8,8a-tetrahydropyrano[3′,4′:4,5]pyrrolo[2,3-d]pyrimidin-9(5H)-yl)pyridin-2-yl)pyrrolidin-2-one], the values for the IC50 (in assay [1]; against Wee1 kinase domain) were 100 to 1000 nM and less than 10 nM, respectively.

As for `CN1C[C@H]2C[C@@H]1CN2c1ccc(Nc2ncc3c(n2)N(c2cccc(N4CCCC4=O)n2)[C@@H]2CC(C)(C)OC[C@]32C)cc1` [Example 631, 1-(6-((4bR,8aR)-4b,7,7-trimethyl-2-((4-((1R,4R)-5-methyl-2,5-diazabicyclo[2.2.1]heptan-2-yl)phenyl)amino)-4b,7,8,8a-tetrahydropyrano[3′,4′:4,5]pyrrolo[2,3-d]pyrimidin-9(5H)-yl)pyridin-2-yl)pyrrolidin-2-one], the IC50 in assay [1] was 100 to 1000 nM; at Wee1 kinase domain, less than 10 nM.

For the compound `CC1(C)C[C@H]2N(c3cccc(N4CCCC4=O)n3)c3nc(Nc4ccc([C@@H]5CCNC5)cc4)ncc3[C@@]2(C)CO1` [Example 632, 1-(6-((4bR,8aR)-4b,7,7-trimethyl-2-((4-((S)-pyrrolidin-3-yl)phenyl)amino)-4b,7,8,8a-tetrahydropyrano[3′,4′:4,5]pyrrolo[2,3-d]pyrimidin-9(5H)-yl)pyridin-2-yl)pyrrolidin-2-one], the IC50 is 100 to 1000 nM in assay [1] and less than 10 nM on Wee1 kinase domain.

With `CN1CC[C@H](c2ccc(Nc3ncc4c(n3)N(c3cccc(N5CCCC5=O)n3)[C@@H]3CC(C)(C)OC[C@]43C)cc2)C1` [Example 634, 1-(6-((4bR,8aR)-4b,7,7-trimethyl-2-((4-((R)-1-methylpyrrolidin-3-yl)phenyl)amino)-4b,7,8,8a-tetrahydropyrano[3′,4′:4,5]pyrrolo[2,3-d]pyrimidin-9(5H)-yl)pyridin-2-yl)pyrrolidin-2-one], the IC50 in assay [1] is 100 to 1000 nM; at Wee1 kinase domain, less than 10 nM.

Consider `CC1(C)C[C@H]2N(c3cccc(N4CCCC4=O)n3)c3nc(Nc4ccc([C@H]5CCNC5)cc4)ncc3[C@@]2(C)CO1` [Example 636, 1-(6-((4bR,8aR)-4b,7,7-trimethyl-2-((4-((R)-pyrrolidin-3-yl)phenyl)amino)-4b,7,8,8a-tetrahydropyrano[3′,4′:4,5]pyrrolo[2,3-d]pyrimidin-9(5H)-yl)pyridin-2-yl)pyrrolidin-2-one], for which the IC50 in assay [1] is 100 to 1000 nM; against Wee1 kinase domain, less than 10 nM.

As to `CN1C[C@H]2C[C@@H]1CN2c1ccc(Nc2ncc3c(n2)N(c2cccc(N4CCCC4=O)n2)[C@@H]2CC(C)(C)OC[C@]32C)cc1F` [Example 638, 1-(6-((4bR,8aR)-2-((3-fluoro-4-((1R,4R)-5-methyl-2,5-diazabicyclo[2.2.1]heptan-2-yl)phenyl)amino)-4b,7,7-trimethyl-4b,7,8,8a-tetrahydropyrano[3′,4′:4,5]pyrrolo[2,3-d]pyrimidin-9(5H)-yl)pyridin-2-yl)pyrrolidin-2-one], the IC50 is 100 to 1000 nM in assay [1] and less than 10 nM against Wee1 kinase domain.

For the compound `CN1C[C@@H]2C[C@H]1CN2c1ccc(Nc2ncc3c(n2)N(c2cccc(N4CCCC4=O)n2)[C@@H]2CC(C)(C)OC[C@]32C)cc1F` [Example 640, 1-(6-((4bR,8aR)-2-((3-fluoro-4-((1S,4S)-5-methyl-2,5-diazabicyclo[2.2.1]heptan-2-yl)phenyl)amino)-4b,7,7-trimethyl-4b,7,8,8a-tetrahydropyrano[3′,4′:4,5]pyrrolo[2,3-d]pyrimidin-9(5H)-yl)pyridin-2-yl)pyrrolidin-2-one], the IC50 in assay [1] is 100 to 1000 nM; at Wee1 kinase domain, less than 10 nM.

With `CN1CC[C@@H](c2ccc(Nc3ncc4c(n3)N(c3cccc(N5CCCC5=O)n3)[C@@H]3CC(C)(C)OC[C@]43C)cc2)C1` [Example 642, 1-(6-((4bR,8aR)-4b,7,7-trimethyl-2-((4-((S)-1-methylpyrrolidin-3-yl)phenyl)amino)-46,7,8,8a-tetrahydropyrano[3′,4′:4,5]pyrrolo[2,3-d]pyrimidin-9(5H)-yl)pyridin-2-yl)pyrrolidin-2-one], the IC50 in assay [1] is 100 to 1000 nM; on Wee1 kinase domain, less than 10 nM.

In the case of `CN1C[C@@H]2C[C@H]1CN2c1ccc(Nc2ncc3c(n2)N(c2cccc(C4(O)CC4)n2)[C@@H]2CC(C)(C)OC[C@]32C)cc1` [Example 644, 1-(6-((4bR,8aR)-4b,7,7-trimethyl-2-((4-((1S,4S)-5-methyl-2,5-diazabicyclo[2.2.1]heptan-2-yl)phenyl)amino)-4b,7,8,8a-tetrahydropyrano[3′,4′:4,5]pyrrolo[2,3-d]pyrimidin-9(5H)-yl)pyridin-2-yl)cyclopropan-1-ol], the IC50 was 100 to 1000 nM in assay [1] and less than 10 nM at Wee1 kinase domain.
